Columns and labels:
MDSCs and T-cells = experiment: Flow cytometry of single cell suspensions from spleens and lungs of 4T1 mice; assay type: in vivo, mouse
Text: Tissue processing for single cell suspensions: • Spleen: Spleens were mashed through wetted 70 μm nylon strainer using syringe plunger. Strainers were rinsed with RPMI+5% FBS. Cells were pelleted and RBCs lysed with ACK lysis buffer (Gibco) per manufacturer's instructions. Cells were resuspended in RPMI+5% FBS and counted prior to plating for staining. • Lungs: Lungs were homogenized and enzymatically digested using a Mouse Tumor Dissociation Kit (miltenyi) per manufacturer's instructions. Cells were resuspended in RPMI+5% FBS and counted prior to plating for staining. During the digestion at 37° C., brefeldin A (Biolegend) was included in the enzyme mix to prevent export of cytokines.
1E6 cells per sample were plated in 96 well plates and extracellular staining was performed per standard procedures. Following extracellular staining, cells were fixed and permeabilized using FoxP3/Transcription Factor Staining Buffer Kit (Tonbo) and intracellular staining was performed per standard procedures. The following antibodies were used.
Following staining, flow cytometry was performed on a Cytek Aurora cytometer and analyzed using FlowJo software.

[1] = tested on: BM-derived MDSCs / T-cells; experiment: Ex vivo co-culture of bone marrow-derived MDSCs with purified T-cells in tryptophan-depleted medium; assay type: cell-based, mouse; conditions: 0.1 μM HC-7366, 1:8 MDSCs:T-cells, FIG. 11B
Method: Single cell suspensions from mouse bone marrow were prepared. Cells were cultured in RPMI complete medium supplemented with GMCSF & IL6 (10 μg/mL) for 4 days to differentiate cells into PMN-MDSCs. T-cells were purified from mouse spleens with EasySep Mouse T-cell isolation kit per manufacturer's instructions Purified T-cells cells were then stained with CellTrace Violet dye (thermo) per manufacturer's instructions. Differentiated MDSCs and purified T-cells were co-cultured in tryptophan-depleted medium+/−HC-7366 (0.1 μM) for […], at a ratio of 1:8 MDSCs:T-cells. Proliferation of T-cells was measured by dilution of CTV via flow cytometry on a BD LSR Fortessa.

[2] = tested on: ISR-induced proteins (PSAT1, ATF4, TRIB3, ASNS); experiment: JESS measurement of ISR-induced proteins in primary 4T1 tumors; assay type: in vivo, mouse; conditions: 3 mg/kg HC-7366; 7 days post treatment initiation; FIG. 7C
Method: A small (lentil-sized) piece of frozen tumor was lysed in 500 μl of lysis buffer containing 2% SDS, 10% betamercaptoethanol, protease and phosphatase inhibitors (Roche, 04 693 159 001 and 04 906 837 001), and 1× Benzonase (Sigma, E1014-25KU). Each sample was homogenized using a polytron (PT 10-35 GT) for 30 seconds, and heated at 95° C. for 5 minutes. Protein concentrations were determined using a 660 nm Protein assay (Pierce, 22662), with the detergent compatibility reagent (Pierce, 22663), according to manufacturer instructions.
Protein samples were analyzed by JESS (ProteinSimple) using the 12-230 kDa separation module (ProteinSimple, SM-W004), and antibodies targeting PSAT1 (Proteintech, 10501-1-AP), ATF4 (AbCam, ab184909), TRIB3 (Proteintech, 66702-1), and ASNS (Proteintech, 14681-1-AP).

[3] = tested on: myeloid cells (immune gene transcripts); experiment: Quantigene gene expression analysis of tumors and spleens of 4T1 mice; assay type: in vivo, mouse; conditions: Day 21 of Tx, FIG. 9
Method: Mouse tumor and spleen tissues were snap frozen and stored in −80° C. freezer. The frozen tissue was soaked in 10× volume of the RNAlater®-ICE (ThermoFisher) at −20° C. for >16 hr. Then the tissue was transferred into M tube (Miltenyi Biotech) containing RLT lysis buffer (Qiagen) and homogenized by gentleMACS Dissociators with program of RNA_02 (Miltenyi Biotech). Total RNA was isolated from homogenized tissue using the RNeasy Plus Mini Kit (Qiagen) RNA concentration was determined by Epoch Microplate Spectrophotometer (Biotek).
A custom-made 77-plex mouse Immune QuantiGene Assay kit (ThermoFisher Scientific) using a bead-based multiplex assay were used to measure the expression of 69 immune genes, 4 stress genes plus 4 reference genes with Luminex xMAP 200 (ThermoFisher Scientific) according to the manufacturer's instructions.

primary 4T1 tumors = experiment: 4T1 orthotopic allograft, primary tumor volume; assay type: in vivo, mouse; conditions: PO, BID; three independent studies; FIG. 4
Text: (§1) 4T1 mouse breast cancer cell line was purchased from American Type Culture Collection (ATCC). Cells were free of human and animal pathogens as tested by h-IMPACT-I and IMPACT-III. Additionally, the genetic profile of the cells matched with the ECACC reference standard as tested by STR based DNA fingerprinting assay. Cells were maintained in RPMI 1640 with 10% FBS, and cultured up to 4 passages prior to implantation. Cells were harvested at ˜80% confluence, washed twice with RPMI 1640 without FBS and suspended in RPMI 1640 without FBS at 10×10^6 cells/mL for implantation.
(§2) Female Balb/c mice (7-8 week of age) were implanted into the right 4th mammary fat pad under Isoflurane anesthesia with 0.5×10^6 4T1 cells/mouse in a total volume of […] on Day 0 Animals were randomized into treatment groups when the average tumor volume reached 50-100 mm^3 on Day 6 post inoculation. Tumors were measured via caliper 2×/week. Tumor volume was calculated using the formula [tumor volume (mm^3)=π/6×length×width^2) Animals were sacrificed at either 7, 14, or 21 days post treatment via CO2 asphyxiation.

[4] = tested on: 4T1 mouse breast cancer cell line; experiment: 4T1 murine orthotopic allograft tumor model, lung metastases (H&E analysis); assay type: in vivo
Text: as §1, §2
(§3) Lungs were perfused with PBS through the heart to remove as much blood as possible prior to collection. Spleens were collected and weighed. […] The remaining lungs were collected with remaining spleen in RPMI medium+5% FBS on ice for flow cytometry. Separate animals were enrolled for lung IHC analyses. Following euthanasia of these animals, lungs were inflated with 10% neutral buffered formalin prior to formalin fixation for 48 hours and paraffin embedding.
Multiple paraffin sections more than 200 μm apart were cut for each lung sample. […] Images were analyzed using custom-written macros in ImageJ/FIJI (NIH) analyzing the relative proportion of tumor regions to the whole lung area. The tumor regions were transferred onto the images of immune-stained sections and intensities of ASNS and PSAT1 signals within these tumor regions were quantified. […]

S100A8 and S100A9 = S100A8 and S100A9 levels in PBMCs and plasma of 4T1 allografted mice; assay type: in vivo, mouse; conditions: FIG. 15C
[5] = tested on: CD4 and CD8 T-cells, S100A8/S100A9 in CD11b+ cells; experiment: Multiplex imaging of FFPE lung samples from 4T1 allografted mice; assay type: in vivo, mouse
Method: Slides were cut from FFPE lung samples. Slides were deparaffinized, rehydrated and heat mediated antigen retrieval was conducted with AR6 buffer (Akoya). Slides were blocked with Roche diagnostics antibody diluent (Fisher) and stained with primary antibodies for 1 hr at 110 rpm. HRP-conjugated secondary antibodies were added for 10 mins at 110 rpm followed by 10 mins with OPAL detection dye (Akoya). For multiplex staining, this process was repeated starting at the antigen retrieval stage. Multispectral Images were captured on the Polaris imaging system (Akoya) and spectral unmixing and cell segmentation was performed using Inform Tissue Finder software (Akoya). Imaging data was converted into .csv files and imported into Flowjo for immune phenotyping.
Primary antibodies used were rat anti-mouse CD4 (clone 4SM95, Thermo 14-9766-82-82, paired with Opal 620), rabbit anti-mouse Ki67 (clone SP6, Thermo MA5-14520, paired with Opal 780), rabbit anti-mouse CD8a (clone D4W2Z, Cell Signaling 98941, paired with Opal 520). Rabbit anti-mouse S1008A (Polyclonal, Proteintech 15792-1-AP, paired with Opal 520), rabbit anti-mouse S1009A (Polyclonal, Proteintech 26992-1-AP, paired with Opal 570), rabbit anti-mouse CD11b (clone EPR1344, Abcam 133357, paired with Opal 690).

[6] = tested on: ISR-induced amino acid biosynthesis proteins ASNS and PSAT1; experiment: IHC of ISR-induced proteins in lungs of 4T1 tumor-bearing mice; assay type: in vivo, mouse; conditions: 3 mg/kg HC-7366; 21 days post treatment initiation; FIG. 7B
Method: as §3
Multiple paraffin sections more than 200 μm apart were cut for each lung sample. Three sections were stained with H&E on Leica Autostainer while one adjacent section was immuno-stained for ASNS (Cell Signaling #92479) and PSAT1 (Proteintech #10501-1-AP) using the Bond Rx stainer (Leica Biosystems). Stained slides were digitized using Versa 200 slide scanner (Leica Biosystems). Images were analyzed using custom-written macros in ImageJ/FIJI (NIH) analyzing the relative proportion of tumor regions to the whole lung area. The tumor regions were transferred onto the images of immune-stained sections and intensities of ASNS and PSAT1 signals within these tumor regions were quantified. (Graphing and statistics were performed using Prism Graphpad).

[7] = Spleen weight (splenomegaly) in 4T1 allografted mice; assay type: in vivo, mouse; conditions: especially at the activating 3 mg/kg dose level; 3 independent studies; FIG. 8B
Method: as §3

[8] = 3 mg/kg HC-7366, Day 14, FIGS. 10B-10C
[9] = 4T1 allografted mice, FIGS. 15A-15B
[10] = greater in metastatic lesions than in normal tissue, FIGS. 12E-12F

CNC(=O)c1ncn2cc(-c3c(F)ccc(NS(=O)(=O)c4cc(Cl)cnc4OC)c3F)ncc12 [HC-7366, 6-(3-((5-chloro-2-methoxypyridine)-3-sulfonamido)-2,6-difluorophenyl)-N-methylimidazo[1,5-a]pyrazine-1-carboxamide]
CD86 on MDSCs in the spleen and lungs (MDSCs and T-cells; [8]): significantly increased
MHCII on MDSCs in the spleen and lungs (MDSCs and T-cells; [8]): significantly increased
CD98 expression on CD8 T-cells in the lungs (MDSCs and T-cells; 3 mg/kg HC-7366, FIG. 14A): not on CD8 T-cells
CD98 expression on MDSCs in the lungs (MDSCs and T-cells; 3 mg/kg HC-7366, FIG. 14A): significantly increased
CD98 expression on MDSCs and CD8 T-cells in the spleen (MDSCs and T-cells; 3 mg/kg HC-7366, both cell subsets, FIG. 14B): increased CD98 expression
MDSC frequency in spleens and lungs (MDSCs and T-cells; 3 mg/kg HC-7366, both organs, FIG. 10A): significantly reduced
activation markers of CD4 and CD8 T-cells in lungs (intracellular flow cytometry) (MDSCs and T-cells; Day 21 of Tx, FIGS. 13A-13B): significantly increased activation markers
activation markers of CD4 and CD8 T-cells in spleens (intracellular flow cytometry) (MDSCs and T-cells; Day 21 of Tx, FIGS. 13C-13D): not in spleens
T-cell proliferation in the presence of BM-derived MDSCs (CTV dilution) [1]: significantly rescued T-cell proliferation
ASNS protein in primary 4T1 tumors (JESS) [2]: Increases
ATF4 protein in primary 4T1 tumors (JESS) [2]: Increases
PSAT1 protein in primary 4T1 tumors (JESS) [2]: Increases
TRIB3 protein in primary 4T1 tumors (JESS) [2]: Increases
gene expression in MDSC-enriched spleens ([3]; 3 mg/kg HC-7366): consistent increases in immune activation transcripts and reductions in inhibitory transcripts
gene expression in tumor tissue [3]: did not show consistent effects
efficacy on primary 4T1 tumors (tumor volume) (primary 4T1 tumors): little to no efficacy
overall metastatic area in lung samples ([4]; 30 mg/kg HC-7366, 4T1 allografted mice, FIGS. 1A-1B): significant reduction in overall metastatic area
anti-metastatic effect in lungs of tumor bearing mice ([4]; 1-3 mg/kg HC-7366, PO, BID, lungs collected 21 days after treatment initiation, FIGS. 5A-5C): consistent anti-metastatic effect
number of lung metastases ([4]; combination therapy of HC-7366 with anti-PD-1 therapy, FIG. 2): significant reduction in the number of lung metastases
S100A8 and S100A9 levels in PBMCs (S100A8 and S100A9): significant reductions
S100A8 and S100A9 levels in plasma (S100A8 and S100A9): significant reductions
S100A8 and S100A9 levels in lung metastases [5, 9]: significant reductions
S100A8 and S100A9 levels in normal lung tissue [5, 9]: significant reductions
CD8 T-cells in metastatic lesions of lung ([5]; HC-7366 treated 4T1 allografted mice, FIG. 12C): significantly increased
CD8 T-cells in normal lung tissue ([5]; HC-7366 treated 4T1 allografted mice, increase compared with that in metastatic lesions, FIG. 12D): to a lesser degree
Ki67 expression of CD4 T-cells in lung [5, 10]: significantly increased Ki67 expression
Ki67 expression of CD8 T-cells in lung [5, 10]: significantly increased Ki67 expression
ASNS expression in lungs (IHC) [6]: Significant increases
PSAT1 expression in lungs (IHC) [6]: Significant increases
splenomegaly (spleen weight) [7]: significantly decreases splenomegaly

From patent US20260137679A1, “GCN2 INHIBITOR FOR TREATING METASTASES” (HIBERCELL, INC., priority 2022, published 2026)
